Reference: patent US11591634B1, “Forecasting bacterial survival-success and adaptive evolution through multiomics stress-response mapping and machine learning” (priority 2019, dated 2023)
Values after ≈ are worked out from the molar mass of the structure shown.

What was measured:
[1] = system: S. pneumoniae strain TIGR4 (T4); assay: Determination of relative minimal inhibitory concentration (MIC); assay type: cell-based, Streptococcus pneumoniae; conditions: Streptococcus pneumoniae, lowest concentration that abolishes bacterial growth, 16 hours, 37° C., read-out: 1x MIC for T4
Procedure: (§1) Each concentration was tested in triplicate. Growth was monitored on a Tecan Infinite 200 PRO plate reader at 37° C. for 16 hours. MIC is determined as the lowest concentration that abolishes bacterial growth (FIGS. 6A-6H).

[2] = system: S. pneumoniae strain Taiwan-19F (19F); assay: as above; assay type: cell-based, Streptococcus pneumoniae; conditions: Streptococcus pneumoniae, 16 h, read-out: 1x MIC for 19F
Procedure: as §1

A. baumannii ATCC 17978 [3] = assay: Ciprofloxacin MIC determination by growth curves; assay type: cell-based; conditions: Acinetobacter baumannii, ATCC17978, read-out: measured MIC
Procedure: as §1

A. baumannii LAC-4 = assay: Ciprofloxacin MIC determination by growth curves; assay type: cell-based; conditions: Acinetobacter baumannii, LAC4, read-out: measured MIC
Procedure: as §1

A. baumannii ATCC 17978 [4] = assay: Single time-point entropy (RNA-Seq) with linear regression MIC prediction; assay type: cell-based; conditions: Acinetobacter baumannii, ATCC17978, 2 h; read-out: predicted MIC (linear regression model on entropy)
S. pneumoniae 19F = assay: Fitness outcome under antibiotic exposure (growth curve assay); assay type: cell-based, Streptococcus pneumoniae
Procedure: (§2) To test whether a gene-panel model can be trained that predicts fitness for many different conditions, a large RNA-Seq dataset was generated for the human pathogen Streptococcus pneumoniae. […] These include cell wall synthesis inhibitors (CWSI), DNA synthesis inhibitors (DSI), protein synthesis inhibitors (PSI) and RNA synthesis inhibitors ((RSI); FIG. 1A, Tables 1 & 2). Each strain was exposed to each antibiotic for 2 to 4 hours and cells were harvested for RNA-Seq at various time points. As T4 and 19F are susceptible to most antibiotics used, the transcriptional profiles in the presence of antibiotics mostly represent cases of low fitness (FIG. 1A, sensitive strain, 1xMICWT). In order to find patterns that differentiate fitness outcomes, adapted strains were generated with increased fitness in the presence of antibiotics by serial passaging wildtype T4 and 19F in the presence of increasing amounts of antibiotics. Four independent adapted populations for each strain were selected on individual antibiotics. These adapted strains could grow in the presence of antibiotic at 1.5xMIC of the wildtype strain, albeit with a small growth defect (FIGS. 6A-6E & 6F). In parallel, RNA-Seq was performed on S. pneumoniae strains D39 and T4 in a chemically defined medium, and media from which either uracil, Glycine or L-Valine was removed, which are essential for D39 but not T4. This enabled the potential identification of a common stress signature that is shared between antibiotic exposure and nutrient deprivation, and across multiple strains. Lastly, D39 was adapted to grow in the absence of each individual nutrient, after which RNA-Seq was repeated for adapted clones (Table 1 lists all 24 strains, 67 populations and 267 RNA-Seq experiments).
(§3) S. pneumoniae strain TIGR4 (T4; NC_003028.3) is a serotype 4 strain originally isolated from a patient^3,4, Taiwan-19F (19F; NC_012469.1) is a multi-drug resistant strain^5,6 and D39 (NC_008533) is a commonly used serotype 2 strain originally isolated from a patient about 90 years ago^7. Strain PG1 and PG19 were isolated from adults with pneumococcal bacteremia infection and included in the Pneumococcal Bacteremia Collection Nijmegen (PBCN)^8. All S. pneumoniae gene numbers refer to the T4 genome. Correspondence between homologous genes among S. pneumoniae strains and gene function annotations are described herewith. Escherichia coli strain AR538, Klebsiella pneumoniae strain AR497 and Salmonella enterica subsp Typhimurium strain AR635 were clinical isolates obtained from the Center of Disease Control (CDC). Staphylococcus aureus strain MN6 was kindly provided by George Sakoulas (Center of Immunity, Infection & Inflammation, UCSD School of Medicine). Unless otherwise specified, S. pneumoniae strains were cultivated in Todd Hewitt medium with 5% yeast extract (THY) with 5 μL/mL oxyrase (Oxyrase, Inc) or on sheep's blood agar plates (Northeastern Laboratories) at 37° C. with 5% CO2. A. baumannii, E. coll. K. pneumoniae, S. aureus and S. Typhimurium were cultured in Mueller Hinton broth II (Sigma) at 37° C. with 220 rpm constant shaking. Tn-Seq and RNA-Seq experiments of S. pneumoniae under nutrient-depletion and antibiotic conditions were performed in chemically defined medium (CDM)^9 and semi-defined minimal medium (SDMM)^10, respectively. RNA-Seq experiments for A. baumannii, S. Typhimurium, E. coll. K. pneumoniae, and S. aureus were performed in Mueller Hinton broth II. Single strain growth assays were performed at least three times using 96-well plates by taking OD600 measurements on a Tecan Infinite 200 PRO plate reader.

S. pneumoniae T4 = assay: as above; assay type: cell-based, Streptococcus pneumoniae
Procedure: as §2, §3

S. pneumoniae serotype 1 = assay: Fitness outcome under ciprofloxacin (growth curve assay); assay type: cell-based, Streptococcus pneumoniae; conditions: 1 μg/mL ciprofloxacin
Procedure: (§4) Since the single-timepoint variant of entropy is the most practical (in terms of data collection and cost), the generalizability of entropy to previously unseen species was evaluated using this model. RNA-Seq was performed at 120 min post exposure to 1 μg/mL of CIP. […] Single-timepoint entropy was computed for the transcriptome of each of these previously unseen isolates.
as §3

[5] = system: S. pneumoniae serotype 23F; assay: as above; assay type: cell-based, Streptococcus pneumoniae; conditions: S. pneumoniae 23F
Procedure: as §4, §3

Escherichia coli AR538 = assay: as above; assay type: cell-based; conditions: E. coli AR538
Procedure: as §4, §3

[6] = system: Klebsiella pneumoniae AR497; assay: as above; assay type: cell-based; conditions: K. pneumoniae AR497
Procedure: as §4, §3

[7] = system: Salmonella Typhimurium AR635; assay: as above; assay type: cell-based; conditions: S. Typhimurium AR635, 1 μg/mL ciprofloxacin
Procedure: as §4, §3

[8] = system: Staphylococcus aureus MN6; assay: as above; assay type: cell-based; conditions: S. aureus MN6
Procedure: as §4, §3

[9] = 1 μg/mL ciprofloxacin, listed as CIP
[10] = 1 μg/mL ciprofloxacin, listed as ciprofloxacin
[11] = strain-specific 1xMIC of ciprofloxacin

## O=C(O)c1cn(C2CC2)c2cc(N3CCNCC3)c(F)cc2c1=O [Ciprofloxacin, ciprofloxacin]
[1]
  MIC: 1 µg/mL (≈ 3.02 µM)
[2]
  MIC: 1 µg/mL (≈ 3.02 µM)
A. baumannii ATCC 17978 [3]
  MIC: 0.07 µg/mL (≈ 0.211 µM)
A. baumannii LAC-4
  MIC: 8.5 µg/mL (≈ 25.7 µM)
A. baumannii ATCC 17978 [4]
  MIC: 0.04 µg/mL (≈ 0.121 µM)
S. pneumoniae 19F; S. pneumoniae 19F wild-type, growth curves
  Fitness: Low
S. pneumoniae 19F; strain 19F, Adapted FALSE, Concentration L (low)
  Survive (real survival outcome): FALSE
S. pneumoniae T4; S. pneumoniae T4 wild-type, 1xMIC antibiotic, growth curves
  Fitness: Low
S. pneumoniae T4; strain T4, Adapted FALSE, Concentration L (low)
  Survive (real survival outcome): FALSE
S. pneumoniae serotype 1
  Fitness: Low
S. pneumoniae serotype 1; listed as ciprofloxacin
  Fitness: low fitness
[5]; 1 μg/mL ciprofloxacin
  Fitness: High
[5]; [9]
  Fitness: insensitive
[5]; [10]
  Fitness: high fitness
[5]; [11]
  Fitness: Low,
Escherichia coli AR538; 1 μg/mL ciprofloxacin
  Fitness: High
Escherichia coli AR538; [9]
  Fitness: insensitive
Escherichia coli AR538; [10]
  Fitness: high fitness
Escherichia coli AR538; [11]
  Fitness: Low,
[6]; 1 μg/mL ciprofloxacin
  Fitness: High
[6]; [9]
  Fitness: insensitive
[6]; [10]
  Fitness: high fitness
[6]; [11]
  Fitness: Low,
[7]
  Fitness: Low
[7]; listed as ciprofloxacin
  Fitness: low fitness
[8]; 1 μg/mL ciprofloxacin
  Fitness: High
[8]; [9]
  Fitness: insensitive
[8]; [11]
  Fitness: Low,
